Several values for one entry are separate records, joined by “and”; a condition that tells them apart may be missing. Identical values can stand only once.
Legend:
Assay type in all cases: in vivo, rat
male Sprague Dawley rats [1] = assay: Intestinal phosphate retention: percent radiolabeled dose recovered in gastrointestinal tract; details: Example 2 0.4 mg/kg, 4 h after radiolabeled phosphate
Method: The purpose of this study is to investigate in rats the effect of Example 2, Compound A, and an Example 2/Compound A combination on phosphate absorption 15 min after dosing the compounds and the phosphate retained in the intestine 4.25 h after dosing the compounds. The latter is a measure of the oral phosphate load which is absorbed over an extended period.
Two vehicles are used in this study: 1) 1% HEC and 2) 0.46% poly-1-vinylpyrrolidone-co-vinyl acetate in water (PVP-VA vehicle). The vehicle control group in this study receives a 1:1 combination of the two vehicles.
The Example 2, Compound A and phosphate dosing solutions are prepared similarly as described above, except the doses are 0.4 mg/kg for Example 2 and 10 mg/kg for Compound A and they are prepared at a concentration where they would be dosed in a 5 mL/kg volume. The Example 2 and Compound A alone groups are mixed 1:1 with the vehicle of the other compound, while the Compound A and Example 2 are mixed 1:1 prior to dosing. The final dosing volume is 10 mL/kg in all cases.
4 h after the radiolabeled phosphate solution is dosed, stomach, small intestine, large intestine, and feces are collected, weighed and digested with 1N NaOH overnight at 37° C. Radioactivity in each fraction is measured by scintillation counting.
The percent dose recovered in gastrointestinal tract is defined as radioactivity recovered in stomach, small intestine, large intestine and feces compared to the amount dosed. Data is presented as mean±SEM with animal numbers equal to 8 for the groups. Statistical significance is determined by ANOVA with a Dunnett's comparison to the Example 2/Compound A combination using JMP 12.1.
The percent dose recovered in gastrointestinal tract data is further analyzed by a two-way ANOVA in JMP 12.1 to test for additivity of the effects of Example 2 and Compound A on inhibiting phosphate absorption. […] That is, the inhibitory effect of the combination is greater than the sum of the individual compound effects.

male Sprague Dawley rats [2] = assay: Radiolabeled phosphate absorption in rats, Studies 1-3 (plasma radioactivity); details: Study 2, rats; for Absorption (vs. vehicle control): mean ± SEM
Method: Effect of Example 2 in Combination with an NPT2b Inhibitor (Compound A) on Phosphate Absorption in Rats
NPT2b inhibitor dosing solutions: Compound A and poly-1-vinylpyrrolidone-co-vinyl acetate (PVP-VA, Sigma-Aldrich) are weighed into a bottle at a ratio of 30% Compound A and 70% PVP-VA by weight. A clear yellow solution is prepared by diluting the mixture in MeOH followed by the addition of 2 mol NaOH per mol Compound A using 5 N NaOH. The solution is spray dried by a stream of hot nitrogen and the solid dispersion powder is collected and then further dried in a vacuum oven. Doses for the sprayed dried solid dispersion (SDD) are expressed as active pharmaceutical ingredient (API) throughout.
To make the Compound A dosing solution, an appropriate amount of Compound A SDD is weighed in a vial and dissolved in water (10 mL/kg dosing volume). […] The subsequent solutions for lower doses are prepared by serial dilutions with water. PVP-VA at 7 mg/mL is used as a vehicle control.
NHE3 inhibitor dosing solutions: To make the Example 2 dosing solution, an appropriate amount of the compound is weighed in a vial and dissolved in 1% HEC (10 mL/kg dosing volume). […] The subsequent solutions for lower doses are prepared by serial dilutions with HEC.
To make the radiolabeled phosphate dosing solution, a 16.25 mM Na2HPO4, 0.9% saline, pH 7.4 solution is prepared and filtered using a sterile, 0.22 μm, polyethersulfone, Millex-GP Syringe Filter Unit (EMD Millipore). Radioactive phosphate (H3^33PO4, Perkin Elmer) is added at about 2.5 μCi per mL of the solution and filtered again.
Three separate studies are performed. In these studies, male Sprague Dawley rats, are randomized into groups with approximately equal mean body weights. Following an overnight fast, all the animals are dosed at 10 mL/kg with either vehicle, varying doses of Compound A (Study 1), varying doses of Example 2 (Study 2) or 1.2 mg/kg Compound A and varying doses of Example 2 (Study 3). 15 min later, radiolabeled phosphate is orally dosed in a 2 mL volume. 15 min later, blood is collected and plasma is prepared. Radioactivity (dpm) in 50 μL plasma is measured by scintillation counting and is used to calculate phosphate absorption. The results are normalized with the vehicle controls representing 100% absorption. The curves are fitted with nonlinear regression with variable slope using GraphPad Prism 6 to calculate the ED50 and Emax given in Table 7. […] No curve fit was performed for Compound A alone in Study 1.

[3] = test system: male spontaneously hypertensive (SHR) rats; assay: Effect on blood pressure (telemetry) in spontaneously hypertensive rats; details: 0.15 mg/kg/day
Excerpt: Effect of Example 2 on Blood Pressure Male spontaneously hypertensive (SHR) rats weighing 250-300 g with age of 7 weeks are acclimated to a reversed light cycle (8:00 am lights off and 8:00 pm lights on) and fed regular chow and water ad libitum. Implantable telemetry devices (model TA11PA-C40, Data Sciences International) are implanted into the abdominal aorta. After recovering from surgery, rats are placed in individual cages in a quiet telemetry facility room for measuring blood pressure (mean arterial pressure, MAP) and heart rate (HR). Digitized pressure signals are acquired for 20 second every 5 min using DSI Dataquest IV 4.0 software. The 31 SHR rats are randomized by MAP into two groups and treated twice daily for 14 days with vehicle (n=15) (10% acacia, 0.05% antifoam in purified water) or 0.15 mg/kg/day Example 2. The first dose is given between 6:00 and 6:30 am (2 h prior to lights off) and the second dose is given between 4:00 and 4:30 pm. The daily food consumption and body weight gain are also monitored. MAP, HR, and body weight (BW) data are analyzed by repeated measures analysis of covariance (ANCOVA) with baseline as the covariate. Food consumption (FC) data are analyzed by repeated measures analysis of variance (ANOVA). The mean blood pressure across the time course of the study (days 1-14) for the group treated with 0.15 mg/kg/day of Example 2 is 4.83 mm Hg less than that of the control group with a p-value of 0.0007 (Table 1).

**Q.** What does the source list for `CN1Cc2c(Cl)cc(Cl)cc2[C@H](c2cccc(S(=O)(=O)NCCOCCOCCN/C(=N\C(N)=O)NCCCCN/C(=N/C(N)=O)NCCOCCOCCNS(=O)(=O)c3cccc([C@@H]4CN(C)Cc5c(Cl)cc(Cl)cc54)c3)c2)C1.Cl.Cl` [Example 2, [[4-[[N′-Carbamoyl-N-[2-[2-[2-[[3-[(4S)-6,8-dichloro-2-methyl-3,4-dihydro-1H-isoquinolin-4-yl]phenyl]sulfonylamino]ethoxy]ethoxy]ethyl]carbamimidoyl]amino]butylamino]-[2-[2-[2-[[3-[(4S)-6,8-dichloro-2-methyl-3,4-dihydro-1H-isoquinolin-4-yl]phenyl]sulfonylamino]ethoxy]ethoxy]ethylamino]methylene]urea dihydrochloride]?
**A.** Percent Dose Recovered, Feces (male Sprague Dawley rats [1]): <0.1%; Percent Dose Recovered, Large Intestine (male Sprague Dawley rats [1]; mean ± SEM): 18.16 ± 2.58%; Percent Dose Recovered, Small Intestine (male Sprague Dawley rats [1]; mean ± SEM): 8.64 ± 0.32%; Percent Dose Recovered, Stomach (male Sprague Dawley rats [1]; mean ± SEM): 3.9 ± 0.49%; Percent Dose Recovered, Total (male Sprague Dawley rats [1]; mean ± SEM, dihydrochloride, 0.4 mg/kg): 31% and 30.7 ± 2.43%; ED50 (male Sprague Dawley rats [2]; Rattus norvegicus, Example 2 alone): 0.041 mg/kg; Absorption (vs. vehicle control) (male Sprague Dawley rats [2]; Example 2 0.001 mg/kg): 97.16 ± 20.76%; Absorption (vs. vehicle control) (male Sprague Dawley rats [2]; Example 2 0.003 mg/kg): 100.81 ± 20.74%; Absorption (vs. vehicle control) (male Sprague Dawley rats [2]; Example 2 0.01 mg/kg): 75.15 ± 15.52%; Absorption (vs. vehicle control) (male Sprague Dawley rats [2]; Example 2 0.03 mg/kg): 83.17 ± 17.99%; Absorption (vs. vehicle control) (male Sprague Dawley rats [2]; Example 2 0.1 mg/kg): 57.29 ± 11.20%; Absorption (vs. vehicle control) (male Sprague Dawley rats [2]; Example 2 0.3 mg/kg): 71.09 ± 13.98%; Absorption (vs. vehicle control) (male Sprague Dawley rats [2]; Example 2 1 mg/kg): 44.29 ± 9.09%; Absorption (vs. vehicle control) (male Sprague Dawley rats [2]; Example 2 3 mg/kg): 60.04 ± 12.00%; Absorption (vs. vehicle control) (male Sprague Dawley rats [2]; Example 2 10 mg/kg): 63.47 ± 8.39%; % Inhibition at the highest dose (phosphate absorption) (male Sprague Dawley rats [2]; Example 2 highest dose tested (10 mg/kg), dihydrochloride): 37%; Effect on body weight (BW) ([3]; 14 days): No significant effect; Effect on food consumption (FC) ([3]; 14 days): No significant effect; Effect on heart rate (HR) ([3]; 14 days): No significant effect; Difference in mean blood pressure vs vehicle ([3]; days 1-14, less than control, p-value 0.0007): 4.83 mm Hg; Mean blood pressure over days 1-14 ([3]; twice daily for 14 days): 153.33 mm Hg

— patent US12428377B2, “Sodium-hydrogen exchanger 3 inhibitor compounds” (Eli Lilly and Company, priority 2019, dated 2025)
